Results: ChEMBL document CHEMBL3137667, “[Drug-induced liver injury; fourteenth updated edition of the bibliographic database of liver injuries and related drugs]” (Gastroenterol Clin Biol, 2004)

Tests used:
[1] = human
[2] = human, serum
[3] = Comments (NB not yet translated). [column 'COMMENTAIRES' in source]; details: human
[4] = Proposed mechanism(s) of liver damage. [column 'MEC' in source]; details: human
[5] = Highest frequency of acute liver toxicity observed during clinical trials, expressed as a percentage. [column '% AIGUE' in source]; details: human
[6] = human; remark: listed apart in the source
[7] = human; remark: listed apart in the source
[8] = human; remark: listed apart in the source
[9] = human; remark: listed apart in the source
[10] = human; remark: listed apart in the source
[11] = human, serum, 4383 h
[12] = human, serum; remark: listed apart in the source
[13] = Times to onset, minimal and maximal, observed in the indexed observations. [column 'DELAI' in source]; details: human
[14] = human; remark: listed apart in the source
[15] = Highest frequency of moderate liver toxicity observed during clinical trials, expressed as a percentage. [column '% BIOL' in source]; details: human
[16] = human; remark: listed apart in the source
[17] = human; remark: listed apart in the source
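For Hepatotoxicity (association with vascular disease) in this document: count of indexed literature references reporting vascular liver injury in humans, e.g. peliosis hepatitis, hepatic veno-occlusive disease or Budd-Chiari syndrome.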
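For Hepatotoxicity (benign tumour) in this document: value is a count of indexed literature references citing a benign tumour confirmed by histopathology.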
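For Hepatotoxicity (choleostasis) in this document: human cholestatic liver injury, shown by histopathology or by peak ALT or AST elevation over alkaline phosphatase ratio below 2, value counts indexed literature reports.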
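For Hepatotoxicity (chronic liver disease) in this document: chronic liver injury confirmed by histopathology or persistently raised serum aminotransferase activity beyond 6 months, value given as the count of indexed literature references.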
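For Hepatotoxicity (cirrhosis) in this document: value is a count of indexed literature references reporting cirrhosis confirmed by histopathology.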
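For Hepatotoxicity (cytolytic) in this document: human cytolytic liver injury, shown by histopathology or by a ratio above 5 of peak ALT or AST elevation to alkaline phosphatase elevation, value counts indexed references.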
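For Hepatotoxicity (granulomatous hepatitis) in this document: value is a count of indexed literature references reporting granulomatous liver disease confirmed by histopathology.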
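For Hepatotoxicity (malignant tumour) in this document: malignant tumour confirmed by histopathology, value gives the count of indexed literature references reporting it.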
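For Hepatotoxicity (severe hepatitis) in this document: human clinical data: severe hepatitis, meaning potentially life-threatening liver failure or clinically observed cases, the value counts how many indexed literature references report it.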
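For Hepatotoxicity (steatosis) in this document: steatosis confirmed by histopathology, value is the count of indexed references.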

| Compound | Hepatotoxicity (moderate) [2] | Hepatotoxicity (comment) [3] | Hepatotoxicity (association with vascular disease) [7] | Hepatotoxicity (cirrhosis) [8] | Hepatotoxicity (steatosis) [9] | Hepatotoxicity (chronic liver disease) [11] | Hepatotoxicity (acute) [12] | Hepatotoxicity (time to onset) [13] | Hepatotoxicity (malignant tumour) [14] | Hepatotoxicity (benign tumour) [16] | Hepatotoxicity (choleostasis) [1] | Hepatotoxicity (mechanism) [4] | Hepatotoxicity (acute) [5] [%] | Hepatotoxicity (severe hepatitis) [6] | Hepatotoxicity (granulomatous hepatitis) [10] | Hepatotoxicity (moderate) [15] [%] | Hepatotoxicity (cytolytic) [17] | other results |
| --- | --- | --- | --- | --- | --- | --- | --- | --- | --- | --- | --- | --- | --- | --- | --- | --- | --- | --- |
| O=C(O)c1cc(-c2ccc(F)cc2F)ccc1O [DIFLUNISAL] | 2 | AC_ANTI-ML | 0 | 0 | 0 | 0 | 5 | 1 week - 1 month | 0 | 0 |  |  |  |  |  |  |  | Hepatotoxicity (choleostasis) ([1]; Liver): 4; Hepatotoxicity (mechanism) ([4]; Liver): Allergic; Hepatotoxicity (acute) ([5]; Liver): 0%; Hepatotoxicity (severe hepatitis) ([6]; Liver): 0; Hepatotoxicity (granulomatous hepatitis) ([10]; Liver): 1; Hepatotoxicity (moderate) ([15]; Liver): 5%; Hepatotoxicity (cytolytic) ([17]; Liver): 2 |
| CC1=C(/C=C/C(C)=C/C=C/C(C)=C/C(=O)O)C(C)(C)CCC1 [TRETINOIN] | 26 | CHOLANGITE | 0 | 0 | 0 | 0 | 10 | 10 days - 38 days | 0 | 0 | 4 | Dose-dependant | 16.7 | 2 | 0 | 85 | 3 |  |
| O=C(c1cc(O)c(O)c(O)c1)c1ccc(O)c(O)c1O [EXIFONE] | 0 | AC_ANTI-ML/-N | 0 | 0 | 0 | 0 | 9 | 3 weeks - 8 months | 0 | 0 | 0 | Allergic, Toxic | 0 | 4 | 0 | 0 | 9 |  |
| C[C@]12C=CC(=O)C=C1CC[C@@H]1[C@@H]2C(=O)C[C@@]2(C)[C@H]1CC[C@]2(O)C(=O)CO [PREDNISONE] | 1 | AGGRAVATION/REACTIVATION_HVB HNF LITHIASE | 0 | 0 | 0 | 0 | 0 | 10 months | 0 | 1 | 0 | Dose-dependant | 0 | 1 | 0 | 80 | 0 |  |
| CN1CCC(=C2c3ccccc3C=Cc3ccccc32)CC1 [CYPROHEPTADINE] | 0 | CHOLESTASE_PROLONGEE CHOLANGITE | 0 | 0 | 0 | 0 | 5 | 1 week - 1 month | 0 | 0 | 3 | Allergic | 0 | 0 | 0 | 0 | 3 |  |
| CCc1cc2c(s1)N(C)C(=O)CN=C2c1ccccc1Cl [CLOTIAZEPAM] | 0 | AC_ANTI-N | 0 | 0 | 0 | 0 | 2 | 7 months | 0 | 0 | 0 | Allergic | 0 | 0 | 0 | 0 | 2 |  |
| CC(=O)Nc1ccc(OCC(O)CNC(C)C)cc1 (stereo not given) [PRACTOLOL] | 0 | AC_ANTI-N/-M #CBP | 0 | 1 | 0 | 0 | 0 | 16 months - 4 years | 0 | 0 | 0 | Allergic | 0 | 0 | 0 | 0 | 0 |  |
| INTERFERON ALFA | 21 | AGGRAVATION_HEPATITE_AUTOIMMUNE/B/DELTA AC_ANTI-ML/LKM/CH | 0 | 1 | 3 | 0 | 2 | 8 days - 8 months | 0 | 0 | 1 | Dose-dependant | 0 | 1 | 0 | 58 | 2 |  |
| COc1cc([C@@H]2c3cc4c(cc3[C@@H](O[C@@H]3O[C@@H]5CO[C@@H](C)O[C@H]5[C@H](O)[C@H]3O)[C@H]3COC(=O)[C@H]23)OCO4)cc(OC)c1O [ETOPOSIDE] | 24 | MVO | 10 | 0 | 0 | 0 | 4 | 1 week - 5 weeks | 0 | 0 |  |  |  |  |  |  |  | Hepatotoxicity (choleostasis) ([1]; Liver): 2; Hepatotoxicity (mechanism) ([4]; Liver): Dose-dependant; Hepatotoxicity (acute) ([5]; Liver): 1%; Hepatotoxicity (severe hepatitis) ([6]; Liver): 5; Hepatotoxicity (granulomatous hepatitis) ([10]; Liver): 0; Hepatotoxicity (moderate) ([15]; Liver): 50%; Hepatotoxicity (cytolytic) ([17]; Liver): 2 |
| GOLD | 22 | AC_ANTI-ADN/-ML/-N HLA-DR3 PERICHOLANGITE | 0 | 0 | 0 | 1 | 52 | 1 week - 5 years | 0 | 0 | 44 | Allergic, Dose-dependant | 0.8 | 5 | 1 | 40 | 7 |  |
